Results published in US20040267001A1, “Genes encoding baeyer-villiger monooxygenases” (priority 2001, published 2004).

Experiments:
Test in all cases: chnB monooxygenase activity assay, NADPH oxidation at 340 nm, purified over-expressed enzyme
Type in all cases: biochemical
[1] = molecular target: T1, Acinetobacter sp. SE19 chnB monooxygenase (Acinetobacter sp., UniProt Q9F7E4); conditions: 1.25 mM substrate, pH 7.5; ND = No Activity Detected
T1 construct: isolated full length BVMO genes from Brevibacterium sp; HCU, Acinetobacter SE19; C-terminal tail provided by the pTrcHis-TOPO vector (C); made in house; host or cells: E. coli
Excerpt: (§1) Following amplification, the chnB gene fragments were cloned into pTrcHis-TOPO TA vectors with either an N-terminal tail or C-terminal tail, as provided by the vector sequence (N-terminal tail for Brevibacterium sp. HCU, Rhodococcus sp. phi1, Rhodococcus sp. phi2, and Arthrobacter sp. BP2 monooxygenases; C-terminal tail for Acinetobacter sp. SE19 and Acidovorax sp. CHX monooxygenases). These vectors were transformed into E. coli, with transformants grown in Luria-Bertani broth supplemented with ampicillin (100 ug/ml) and riboflavin (0.1 ug/ml) at 30° C. until the absorbance at 600 nm (A600) reached 0.5. When the A600 was reached, the temperature was shifted to 16° C.
(§2) The encoded monooxygenase sequences were expressed upon addition of IPTG to the culture media, 30 min after the temperature shift to 16° C. The cultures were grown further ovemight (14 hrs) and harvested by centrifugation in a cold centrifuge. The cells were treated with lysozyme (100 mg/ml) for 30 min on ice and sonicated. Following sonication, cell extracts were centrifuged and the supernatant was equilibrated with Ni-NTA resin (Qiagen, Valencia, Calif.) for 1 hr at 4° C. Protein bound resin was washed successively with increasing concentrations of imidazole buffer until the protein of interest was released from the resin. The purified protein was concentrated and the buffer exchanged to remove the imidazole. The protein concentration was adjusted to 1 ug/ml.
(§3) Compounds were selected on the basis of previous observations by van der Werf (J. Biochem. 347:693-701 (2000)) and Miyamoto et al. (Biochimica et Biophysica Acta 1251: 115-124 (1995)) and by searches for the ketone substructure.
(§4) All compounds were obtained from Sigma-Aldrich with only two exceptions. Levoglucosenone was obtained from Toronto Research Chemicals, Inc. and dimethyl-2-piperidone was prepared according to U.S. Pat. No. 6,077,955. For enzyme assays all compounds were dissolved to a concentration of 0.1 M in methanol, with the exceptions of norcamphor (dissolved in ethyl acetate), cyclododecanone, cycltridecanone and cyclopentadecanone (dissolved in propanol), and levoglucosenone (dissolved with acetone).
(§5) The monooxygenase activity of each over-expressed enzyme was assayed spectrophotometrically at 340 nm by monitoring the oxidation of NADPH. Assays were performed in individual quartz cuvettes, with a pathlength of 1 cm. […] An Ultrospec 4000 (Pharmacia Biotech, Cambridge, England) was used to read the absorbance of the samples over a two to ten minute time period and the SWIFT (Pharmacia Biotech) program was used to calculate the slope of the reduction in absorbance over time. For the Brevibactedum sp. […] Monooxygenase activity of each over-expressed enzyme is shown in Table 5, with respect to each ketone substrate. The specific activity values listed are given in umol/min/mg. The notation “ND” refers to “No Activity Detected”.

[2] = test system: Acidovorax sp. CHX chnB monooxygenase; conditions: 1.25 mM substrate, pH 7.5; ND = No Activity Detected
Excerpt: as §1, §2, §3, §4, §5

[3] = test system: Brevibacterium sp. HCU chnB2 monooxygenase; conditions: 1.25 mM substrate, pH 7.5; rates multiplied by a factor of 3.25 to adjust for decrease in activity due to storage; ND = No Activity Detected
Excerpt: as §1, §2, §3, §4, §5

[4] = test system: Arthrobacter sp. BP2 chnB monooxygenase; conditions: 1.25 mM substrate, pH 7.5; ND = No Activity Detected
Excerpt: as §1, §2, §3, §4, §5

[5] = test system: Rhodococcus sp. phi1 chnB monooxygenase; conditions: 1.25 mM substrate, pH 7.5; ND = No Activity Detected
Excerpt: as §1, §2, §3, §4, §5

[6] = test system: Brevibacterium sp. HCU chnB1 monooxygenase; conditions: 1.25 mM substrate, pH 7.5; ND = No Activity Detected
Excerpt: as §1, §2, §3, §4, §5

[7] = test system: Rhodococcus sp. phi2 chnB monooxygenase; conditions: 1.25 mM substrate, pH 7.5; ND = No Activity Detected
Excerpt: as §1, §2, §3, §4, §5

| SMILES | Specific Activity of Monooxygenase Enzymes Against Various Ketone Substrates, sp. SE19 chnB [1] [µmol/min/mg] | Specific Activity of Monooxygenase Enzymes Against Various Ketone Substrates, sp. CHX chnB [2] [µmol/min/mg] | Specific Activity of Monooxygenase Enzymes Against Various Ketone Substrates, sp. HCU chnB2 [3] [µmol/min/mg] | Specific Activity of Monooxygenase Enzymes Against Various Ketone Substrates, sp. BP2 chnB [4] [µmol/min/mg] | Specific Activity of Monooxygenase Enzymes Against Various Ketone Substrates, sp. phi1 chnB [5] [µmol/min/mg] | Specific Activity of Monooxygenase Enzymes Against Various Ketone Substrates, sp. HCU chnB1 [6] [µmol/min/mg] | Specific Activity of Monooxygenase Enzymes Against Various Ketone Substrates, sp. phi2 chnB [7] [µmol/min/mg] |
| --- | --- | --- | --- | --- | --- | --- | --- |
| O=C1CCCCC1=O [1,2-cyclohexanedione] | 0.077 | 0.096 | 0.416 | 0.237 | 0.083 | 0.787 | – |
| O=C1CCCC(=O)C1 [1,3-cyclohexanedione] | 0.237 | 0.032 | 0.978 | 0.397 | – | 0.237 | 0.141 |
| O=C1CCCCC1c1ccccc1 (stereo not shown) [2-phenyl-cyclohexanone] | 5.370 | 0.192 | 0.104 | – | 1.050 | 1.459 | 0.730 |
| CCCCCCCCCCCC(C)=O [2-tridecanone] | – | 0.096 | 0.187 | – | 0.160 | – | 1.690 |
| O=C1CCC1 [Cyclobutanone] | 0.109 | – | 0.374 | 0.128 | 0.102 | – | 0.154 |
| O=C1CCCCCCCCC1 [Cyclodecanone] | 0.320 | 0.160 | – | 0.166 | 0.077 | – | 0.205 |
| O=C1CCCCCCCCCCC1 [Cyclododecanone] | 0.122 | 0.051 | 0.229 | 0.198 | – | – | 0.122 |
| O=C1CCCCCCC1 [Cyclooctanone] | 1.984 | 0.410 | – | 0.646 | 0.627 | – | 0.141 |
| O=C1CCCCCCCCCCCCCC1 [Cyclopenta-decanone] | 0.109 | – | – | 0.122 | 0.122 | – | – |
| O=C1CCCC1 [Cyclopentanone] | 3.034 | 0.621 | 1.331 | 1.491 | 1.370 | – | 2.451 |
| O=C1CCCCCCCCCCCC1 [Cyclotridecanone] | 0.166 | – | – | 0.147 | – | – | 0.109 |
| O=C1CCCCCCCCCC1 [Cycloundecanone] | 0.064 | 0.058 | 0.125 | 0.064 | – | – | 0.051 |
| O=C1C=C[C@H]2CO[C@@H]1O2 [Levoglucosenone] | 1.126 | 0.147 | – | 0.525 | 0.461 | – | 0.506 |
| OB(O)c1ccccc1 [Phenylboronic acid] | 0.102 | – | – | 0.192 | – | 1.606 | 0.109 |
| CCCCCCC(=O)CCCCCC [dihexyl ketone] | – | – | 0.270 | – | 0.160 | – | – |
| C[S+](C)[O-] [dimethyl sulfoxide] | 0.819 | 0.358 | – | 0.422 | 0.518 | 0.230 | 0.544 |
